In ChEMBL document CHEMBL5321276, “Novel Benzimidazoles as Potent Small-Molecule Inhibitors and Degraders of V-Domain Ig Suppressor of T-Cell Activation (VISTA)” (J Med Chem, 2023):
Blank lines part the entries; values can stand above or below the compound they belong to. Calls of active or inactive are those of the source. The calls are words filed in the database; no cut-off is given here.

Experiments:
[1] = Oral bioavailability in Sprague-Dawley rat at 25 mg/kg measured upto 24 hrs by LC-MS/MS analysis; format: ADME, organism-based; details: in vivo
[2] = target: T1, V-type immunoglobulin domain-containing suppressor of T-cell activation (Homo sapiens) (UniProt Q9H7M9); assay: Inhibition of Fc fused VISTA in CD3/CD28/CD2 T cell activator stimulated human PBMC cells assessed as induction of IFN-gamma secretion at 5 to 10 uM measured after 48 hrs by ELISA assay; format: cell-based; details: dose 5-10 µM
T1 sequence (whole entry): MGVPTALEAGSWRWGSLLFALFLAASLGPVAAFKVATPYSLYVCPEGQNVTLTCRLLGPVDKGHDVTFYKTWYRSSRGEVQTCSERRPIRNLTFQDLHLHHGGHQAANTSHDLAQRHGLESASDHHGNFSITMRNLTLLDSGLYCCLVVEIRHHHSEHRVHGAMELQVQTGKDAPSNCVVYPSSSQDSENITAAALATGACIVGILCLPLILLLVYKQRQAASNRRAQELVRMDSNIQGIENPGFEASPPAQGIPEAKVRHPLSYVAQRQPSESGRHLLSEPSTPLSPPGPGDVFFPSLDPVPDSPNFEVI

MDA-MB-231 [3] = assay: Antitumor immunity against human MDA-MB-231 cells cocultured with CD3/CD28/CD2 T cell activator stimulated human PBMC cells assessed as reduction in cell growth by measuring LDH release pre-treated with compound for 2 hrs measured after 12 hrs; format: functional, cell-based; details: dose 0.313-5 µM, time 14.0 hrs
PBMC = assay: Cytotoxicity against human PBMC cells assessed as reduction in cell viability at 5 uM; format: toxicity, cell-based
MDA-MB-231 [4] = assay: Cytotoxicity against human MDA-MB-231 cells assessed as reduction in cell viability at 5 uM; format: toxicity, cell-based; details: mda-mb-231, 5 µM
HepG2 [5] = assay: Induction of autophagy in human HepG2 cells assessed as induction of VISTA degradation measured after 24 hrs by Western blotting analysis; format: functional, cell-based; details: dose 5-10 µM
HepG2 [6] = assay: Induction of autophagy in human HepG2 cells assessed as induction of VISTA degradation at 5 uM by Western blotting analysis; format: functional, cell-based
HepG2 [7] = assay: Induction of autophagy in human HepG2 cells assessed as induction of VISTA degradation at 10 uM measured upto 4 hrs in presence of cycloheximide by Western blotting analysis; format: functional, cell-based
HepG2 [8] = assay: Induction of autophagy in human HepG2 cells assessed as induction of VISTA degradation at 10 uM measured after 24 hrs in presence of pepstatin A by Western blotting analysis; format: functional, cell-based
HepG2 [9] = assay: Induction of autophagy in human HepG2 cells assessed as induction of VISTA degradation at 10 uM measured after 24 hrs in presence of 3-MA by Western blotting analysis; format: functional, cell-based
HepG2 [10] = assay: Induction of autophagy in human HepG2 cells assessed as induction of VISTA degradation at 10 uM measured after 24 hrs in presence of chloroquine by Western blotting analysis; format: functional, cell-based
HepG2 [11] = assay: Induction of autophagy in human HepG2 cells assessed as induction of VISTA degradation at 10 uM measured after 24 hrs in presence of MG132 by Western blotting analysis; format: functional, cell-based
HepG2 [12] = assay: Induction of autophagy in human HepG2 cells assessed as increase in LC3II expression at 10 uM measured after 24 hrs in presence of chloroquine by Western blotting analysis; format: functional, cell-based
HepG2 [13] = assay: Induction of autophagy in human HepG2 cells harboring adenovirus-mCherry-GFP-LC3B assessed as increase in LC3 puncta accumulation measured after 24 hrs by inverted fluorescence microscopic analysis; format: functional, cell-based; details: dose 5-10 µM
[14] = target: T2, V-type immunoglobulin domain-containing suppressor of T-cell activation (Mus musculus, UniProt Q9D659); assay: Binding affinity to mouse VISTA assessed as dissociation constant incubated for 10 mins by MST assay
T2 sequence (Q9D659 whole entry): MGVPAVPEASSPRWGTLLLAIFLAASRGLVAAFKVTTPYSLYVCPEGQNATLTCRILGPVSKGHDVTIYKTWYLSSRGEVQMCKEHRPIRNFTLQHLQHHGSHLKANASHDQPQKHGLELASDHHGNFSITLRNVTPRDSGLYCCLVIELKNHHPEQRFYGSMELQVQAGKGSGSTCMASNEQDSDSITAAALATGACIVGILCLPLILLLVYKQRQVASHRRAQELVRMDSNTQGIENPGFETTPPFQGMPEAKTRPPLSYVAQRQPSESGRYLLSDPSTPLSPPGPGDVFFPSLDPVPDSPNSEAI

CT26 [15] = assay: Antitumor activity against mouse CT26 cells implanted in BALB/c mouse assessed as tumor growth inhibition at 30 mg/kg, po administered once daily for 15 days; format: functional; details: CT26, 360 h, time 15 day, read-out: TGI
CT26 [16] = assay: Antitumor activity against mouse CT26 cells implanted in BALB/c mouse assessed as tumor growth inhibition at 60 mg/kg, po administered once daily for 15 days; format: functional; details: CT26, 360 h, time 15 day, read-out: TGI
CT26 [17] = assay: Antitumor activity against mouse CT26 cells implanted in BALB/c mouse assessed as tumor growth inhibition at 120 mg/kg, po administered once daily for 15 days; format: functional; details: CT26, 360 h, time 15 day, read-out: TGI
[18] = Toxicity in BALB/c mouse implanted with mouse CT26 cells assessed as reduction in body weight at 30 to 120 mg/kg, po administered once daily for 15 days; format: organism-based; details: in vivo, 360 h, dose 30-120 mg/kg, time 15 day
[19] = Toxicity in BALB/c mouse implanted with mouse CT26 cells assessed as mortality at 30 to 120 mg/kg, po administered once daily for 15 days; format: organism-based; details: in vivo, 360 h, dose 30-120 mg/kg, time 15 day
CT26 [20] = assay: Antitumor activity against po dosed mouse CT26 cells implanted in BALB/c mouse assessed as increase in infiltration of CD8 positive cells in tumor administered once daily for 15 days by DAPI staining based fluorescent inverted microscopic analysis; format: functional, organism-based; details: dose 30-120 mg/kg, time 15.0 day
CT26 [21] = assay: Antitumor activity against mouse CT26 cells implanted in BALB/c mouse assessed as induction of VISTA degradation in tumor at 30 to 120 mg/kg, po administered once daily for 15 days by Western blotting analysis; format: functional, organism-based; details: dose 30-120 mg/kg, time 15.0 day
CT26 [22] = assay: Antitumor activity against mouse CT26 cells implanted in BALB/c mouse assessed as tumor shrinkage at 30 to 120 mg/kg, po administered once daily for 15 days by Hematoxylin and eosin based analysis; format: functional, organism-based; details: dose 30-120 mg/kg, time 15.0 day
CT26 [23] = assay: Antitumor activity against mouse CT26 cells implanted in BALB/c mouse assessed as tumor growth delay at 30 to 120 mg/kg, po administered once daily for 15 days by Hematoxylin and eosin based analysis; format: functional, organism-based; details: dose 30-120 mg/kg, time 15.0 day
CT26 [24] = assay: Antitumor activity against po dosed mouse CT26 cells implanted in BALB/c mouse assessed as reduction in tumor growth administered once daily for 15 days; format: functional, organism-based; details: dose 30-120 mg/kg, time 15.0 day
[25] = target: T3, V-type immunoglobulin domain-containing suppressor of T-cell activation (Homo sapiens, UniProt Q9H7M9); assay: Binding affinity to human VISTA assessed as dissociation constant by SPR assay
T3 sequence (Q9H7M9 whole entry): T1 sequence (whole entry)

CT26 [26] = assay: Antitumor activity against mouse CT26 cells implanted in BALB/c mouse assessed as reduction in tumor growth at 60 mg/kg, po administered once daily for 15 days; format: functional, organism-based; details: time 15.0 day

Structure (SMILES): Cc1c(-c2ccccc2)ccc2nc(-c3cccc(CNCCO)c3)[nH]c12
bioavailability [1]: 16% | inhibition [2]: Active | Activity (MDA-MB-231 [3]): Dose-Dependent Effect | Activity (PBMC): Non-Toxic | Activity (MDA-MB-231 [4]): Non-Toxic | Activity (HepG2 [5]): Dose-Dependent Effect | Activity (HepG2 [6]): Active | Activity (HepG2 [7]): Active | Activity (HepG2 [8]): inactive | Activity (HepG2 [9]): inactive | Activity (HepG2 [10]): inactive | Activity (HepG2 [11]): Active | Activity (HepG2 [12]): Active | Activity (HepG2 [13]): Dose-Dependent Effect | Kd [14]: 6800 nM | inhibition in vivo at 30 mg/kg (CT26 [15]): 29% | inhibition in vivo at 60 mg/kg (CT26 [16]): 41% | inhibition in vivo at 120 mg/kg (CT26 [17]): 59% | Activity [18]: Non-Toxic | Activity [19]: Non-Toxic | Activity (CT26 [20]): Dose-Dependent Effect | Activity (CT26 [21]): Active | Activity (CT26 [22]): Active | Activity (CT26 [23]): Active | Activity (CT26 [24]): Dose-Dependent Effect

Structure (SMILES): Cc1c(-c2ccccc2)ccc2nc(-c3ccc(CNCCO)cc3)[nH]c12
Kd [25]: 1130 nM

Structure (SMILES): Cc1c(-c2ccccc2)ccc2nc(-c3cccc(CNCC[C@@H]4CCC(=O)N4)c3)[nH]c12
Kd [25]: 763 nM

Structure (SMILES): Cc1c(-c2ccccc2)ccc2nc(-c3cccc(CNCC(=O)O)c3)[nH]c12
Kd [25]: 1050 nM

Structure (SMILES): C[C@@H](O)[C@H](NC(=O)N[C@@H](CC(N)=O)c1nc([C@@H](N)CO)no1)C(=O)O
Activity (HepG2 [6]): inactive | Activity (CT26 [26]): Active

Structure (SMILES): Cc1c(-c2ccccc2)ccc2nc(-c3cccc(CNC[C@H](O)CC(=O)O)c3)[nH]c12
Kd [25]: 1780 nM

Further lines, results first:

Kd [25]: 3120 nM
Structure (SMILES): CC(=O)NCCNCc1cccc(-c2nc3cccc(C)c3[nH]2)c1

Kd [25]: 1160 nM
Structure (SMILES): CC(=O)NCCNCc1cccc(-c2nc3ccc(Br)c(C)c3[nH]2)c1

Kd [25]: 374 nM | inhibition [2]: Active
Structure (SMILES): CC(=O)NCCNCc1ccc(-c2nc3ccc(-c4ccccc4)c(C)c3[nH]2)cc1

Kd [25]: 491 nM
Structure (SMILES): Cc1c(-c2ccccc2)ccc2nc(-c3cccc(CNCCN)c3)[nH]c12

Kd [25]: 187 nM | inhibition [2]: Active
Structure (SMILES): CC(=O)NCCNCc1cccc(-c2nc3ccc(-c4ccccc4)c(C)c3[nH]2)c1
